Measurements published in US9725462B2, “Pyridopyrimidine derivatives as protein kinase inhibitors” (Merck Patent GmbH, priority 2012, dated 2017).

Target: T1, SYK (Homo sapiens, UniProt P43405)
T1 construct: 2.5 nM SYK, 400 nM Biotin-Aha-Aha-KEDPDYEWPSAKK
Experiment: SYK Flash Plate Assay (enzyme assay)
Assay type: biochemical
Details: Syk inhibition
Excerpt: The following abbreviations refer respectively to the definitions below: • aq (aqueous), h (hour), g (gram), L (liter), mg (milligram), MHz (Megahertz), min. (minute), mm (millimeter), mmol (millimole), mM (millimolar), m.p. (melting point), eq (equivalent), mL (milliliter), L (microliter), ACN (acetonitrile), AcOH (acetic acid), CDCl3 (deuterated chloroform), CD3OD (deuterated methanol), CH3CN (acetonitrile), c-hex (cyclohexane), DCC (dicyclohexyl carbodiimide), DCM (dichloromethane), DIC (diisopropyl carbodiimide), DIEA (diisopropylethyl-amine), DMF (dimethylformamide), DMSO (dimethylsulfoxide), DMSO-d6 (deuterated dimethylsulfoxide), EDC (1-(3-dimethyl-amino-propyl)-3-ethylcarbodiimide), ESI (Electro-spray ionization), EtOAc (ethyl acetate), Et2O (diethyl ether), EtOH (ethanol), HATU (dimethylamino-([1,2,3]triazolo[4,5-b]pyridin-3-yloxy)-methylene]-dimethyl-ammonium hexafluorophosphate), HPLC (High Performance Liquid Chromatography), i-PrOH (2-propanol), K2CO3 (potassium carbonate), LC (Liquid Chromatography), MeOH (methanol), MgSO4 (magnesium sulfate), MS (mass spectrometry), MTBE (Methyl tert-butyl ether), NaHCO3 (sodium bicarbonate), NaBH4 (sodium borohydride), NMM (N-methyl morpholine), NMR (Nuclear Magnetic Resonance), PyBOP (benzotriazole-1-yl-oxy-tris-pyrrolidino-phosphonium hexafluorophosphate), RT (room temperature), Rt (retention time), SPE (solid phase extraction), TBTU (2-(1-H-benzotriazole-1-yl)-1,1,3,3-tetramethyluromium tetrafluoro borate), TEA (triethylamine), TFA (trifluoroacetic acid), THF (tetrahydrofuran), TLC (Thin Layer Chromatography), UV (Ultraviolet). Description of the In Vitro Assays SYK Flash Plate Assay
The kinase assay is performed either as 384-well Flashplate assay (for e.g. Topcount measurement) or as 384-well Image-Flashplate assay (for LEADseeker measurement).
2.5 nM SYK, 400 nM Biotin-Aha-Aha-KEDPDYEWPSAKK
and 10 μM ATP (spiked with 0.3 μCi 33P-ATP/well) are incubated in a total volume of 50 μl (60 mM Hepes, 10 mM MgCl2, 1.2 mM Dithiothreitol, 0.02% Brij35, 0.1% BSA, pH 7.5) with or without test compound for 1 hours at 30° C. The reaction is stopped with 25 μl 200 mM EDTA. After 30 Min at 30° C. the liquid is removed and each well washed thrice with 100 μl 0.9% sodium chloride solution. Non-specific reaction is determined in presence of 0.1 μM Staurosporine. Radioactivity is measured with Topcount (when using Flashplates) or with LEADseeker (when using Image-Flashplates) respectively. Results (e.g. IC50-values) are calculated with program tools provided by the IT-department (e.g. Symyx Assay Explorer, Genedata Screener). In Vivo Assays CIA

With `N#Cc1ccc2c(-c3cnc(C(F)F)c4cnc(N[C@@H]5CCCC[C@@H]5N)nc34)c[nH]c2c1` [Compound A87, 3-[2-((1R,2S)-2-amino-cyclohexylamino)-5-difluoromethyl-pyrido[4,3-d]-pyrimidin-8-yl]-1H-indole-6-carbonitrile] as the compound, how does the IC50 read?
Its IC50 is < 0.1 µM.

Which IC50 does the source give for `Cn1cc(-c2cnc(C(F)F)c3cnc(N[C@@H]4CCCC[C@@H]4N)nc23)cn1` [Compound A91, (1R,2S)—N-[5-difluoromethyl-8-(1-methyl-1H-pyrazol-4-yl)-pyrido-[4,3-d]pyrimidin-2-yl]-cyclohexane-1,2-diamine] here?
Its IC50 is 0.1 to 1 µM.
